In one assay the target is protein kinase C (PKC). As to the kind of experiment: Enzyme test PKC with peptide substrate [Ser^25] PKC (19-31), phosphorus^32 phosphate incorporation. In kind it is biochemical, rat. As for the experimental part:
The enzyme protein kinase C (PKC) is purified from rat brain. Its activity is determined by way of the incorporation of phosphorus ^32 -labelled phosphate into a synthetic peptide which is derived from the PKC "pseudosubstrate" sequence (arnino acids 19 to 31 of the PKC sequence with alanine in position 25 substituted by serine). A reaction batch of 200 μL contains the following components: 50 mM Tris HCl, pH 7.5, 5 mM MgCl2, 1 mM DTT, 4 μM free Ca^2+, 10 μM ATP, 1 μg phosphatidylserine, 0.2 μg 1,2-diolein, as well as 0.3 μg peptide substrate. The batch is preincubated for 4 minutes at 30° C. and the reaction then started by the addition of 5 nm PKC. After incubation for 5 minutes at 30° C., the reaction is stopped with 0.73% H3 PO4, and the sample then filtered over a nitrocellulose filter (0.1 μm pore size). The phosphate incorporation is determined by means of Cerenkov counting in a scintillation counter. […]

The target of assay [1] is Myosin Light Chain Kinase. Briefly: Inhibition of myosin light chain kinase (selectivity test). In kind it is biochemical. The conditions noted are these: Table 2; for IC50: Myosin Light Chain Kinase, read-out: Inhibition of the Protein Kinases IC50: MLC Kinase; for Ratio of IC50 MLC Kinase/IC50 C Kinase: selectivity ratio MLC Kinase over PKC. As for the experimental part:
The selectivity of these compounds with regard to other kinases, such as myosin light chain kinase, was tested on the basis of some examples. These values are set out in the following Table 2.

The mark [2] stands for this setting: Table 1, PKC purified from rat brain, 10 μM ATP, pH 7.5, 30° C., 5 minutes, read-out: Inhibition IC50, Enzyme Test PKC With Peptide Substrate [Ser^25] PKC (19-31).
[3] abbreviates: Table 2, PKC with peptide substrate [Ser^25] PKC (19-31), read-out: Inhibition of the Protein Kinases IC50: PKC.

Like-named read-outs stand apart in the source and are kept apart here. Where a SMILES comes first, the peptide text is derived from it. The star is where a group is joined. X1 = Cn1cc(C2=C(c3cn(CCC(=O)*)c4ccccc34)C(=O)NC2=O)c2ccccc21 Where only a bound is given, the exact number is not on record here.

In the case of `C[C@@H](N)C(=O)NCCCn1cc(C2=C(c3cn(C)c4ccccc34)C(=O)NC2=O)c2ccccc21` [Example 2, 2-[(1-Methyl)-1H-indol-3-yl)-3-[1-(3-D-alanylaminopropyl)-1H-indol-3-yl]-maleinimide], the IC50 at protein kinase C (PKC) (setting [2]) stood at 0.028 µM.
As for `C[C@H](N)C(=O)NCCCCn1c2ccccc2c2c3c(c4c5ccccc5n(C)c4c21)C(=O)NC3=O` [Example 10, 12-[2-(4-L-Alanyl)-aminobutyl]-6,7,12,13-tetrahydro-13-methyl-5,7-dioxo-5H-indolo[2,3-a]pyrrolo[3,4-c]-carbazole], the IC50 at protein kinase C (PKC) (setting [2]) was found to be 0.0096 µM.
For the compound `Cn1cc(C2=C(c3cn(CCCCCCCCCNC(=O)[C@@H](N)CO)c4ccccc34)C(=O)NC2=O)c2ccccc21` [Example 2e, 2-[(1-Methyl)-1H-indol-3-yl]-3-[1-(9-L-serylaminononyl)-1H-indol-3-yl]-maleinimide], the IC50 on protein kinase C (PKC) (setting [2]) is over 1 µM.
On to `C[C@H](N)C(=O)NCCCCn1cc(C2=C(c3cn(C)c4ccccc34)C(=O)NC2=O)c2ccccc21` [Example 2a, 2-[(1-Methyl)-1H-indol-3-yl]-3-[1-(4-L-alanylaminobutylyl)-1H-indol-3-yl)-maleinimide], for which, at protein kinase C (PKC) (setting [2]), the IC50 was found to be 0.025 µM.
As for “2-[(1-Methyl)-1H-indol-3-yl]-3-[1-(3-β-alanylamino-propyl)-1H-indol-3-yl]-maleinimide [Example 1a]”, the results for the IC50 (on protein kinase C (PKC) (setting [2]); on protein kinase C (PKC) (setting [3]); in assay [1]) were 0.0063 µM, 0.0063 µM and 1.9 µM, respectively. For the same compound, in assay [1], the “Ratio of IC50 MLC Kinase/IC50 C Kinase” value was 302.
Turning to `C[C@H](NC(=O)CCn1cc(C2=C(c3cn(C)c4ccccc34)C(=O)NC2=O)c2ccccc21)C(=O)O` [Example 5, 3-[3-[4-(1-Methylindol-3-yl)-1H-pyrrole-2,5-dion-3-yl]-indol-1-yl)-propionyl-L-alanine], the IC50 on protein kinase C (PKC) (setting [2]) worked out at 0.58 µM.
For the compound `C[C@H](N)C(=O)NCCCCCn1c2ccccc2c2c3c(c4c5ccccc5n(C)c4c21)C(=O)NC3=O` [Example 10a, 12-[2-(5-L-alanyl)-aminopentyl]-6,7,12,13-tetrahydro-13-methyl-5,7-dioxo-5H-indolo[2,3-a]pyrrolo-[3,4-c]carbazole], the IC50 on protein kinase C (PKC) (setting [2]) is 0.053 µM.
Consider `C[C@H](N)C(=O)NCCCCCCCCn1cc(C2=C(c3cn(C)c4ccccc34)C(=O)NC2=O)c2ccccc21` [Example 2f, 2-[(1-Methyl)-1H-indol-3-yl]-3-[1-(9-L-alanylaminooctyl)-1H-indol-3-yl)-maleinimide], for which the 50% inhibitory concentration (IC50) at protein kinase C (PKC) (setting [2]) stood at 0.33 µM.
For the compound `Cn1cc(C2=C(c3cn(CCCNC(=O)CCCCNC(=O)[C@@H](N)CO)c4ccccc34)C(=O)NC2=O)c2ccccc21` [Example 3, 2-[(1-Methyl)-1H-indol-3-yl]-3-[1-[3-(5-L-serylaminopentanoyl)-aminopropyl)-1H-indol-3-yl)-maleinimide], the half-inhibitory concentration (IC50) on protein kinase C (PKC) (setting [2]) came to 0.061 µM.
Regarding `C[C@H](N)C(=O)NCCC(=O)NCCCn1cc(C2=C(c3cn(C)c4ccccc34)C(=O)NC2=O)c2ccccc21` [Example 4a, 2-[(1-Methyl)-1H-indol-3-yl]-3-[1-[3-(L-alanyl-β-alanyl)-aminopropyl]-1H-indol-3-yl)-maleinimide], the IC50 on protein kinase C (PKC) (setting [2]) worked out at 0.018 µM.
As to `C[C@H](NC(=O)CNC(=O)[C@H](CO)NC(=O)CCn1cc(C2=C(c3cn(C)c4ccccc34)C(=O)NC2=O)c2ccccc21)C(N)=O` [Example 7d, 3-[3-[4-(1-methylindol-3-yl)-1H-pyrrole-2,5-dion-3-yl)-indol-1-yl)-propionyl-L-serylglycyl-L-alaninamide], the IC50 at protein kinase C (PKC) (setting [2]) was over 1 µM.
Still for that read-out and setting: as for `C[C@H](NC(=O)CNC(=O)CNC(=O)CCn1cc(C2=C(c3cn(C)c4ccccc34)C(=O)NC2=O)c2ccccc21)C(N)=O` [Example 7b, 3-[3-[4-(1-methylindol-3-yl)-1H-pyrrole-2,5-dion-3-yl]-indol-1-yl)-propionylglycylglycyl-L-alaninamide], the figure is over 0.1 µM.
Still for that read-out and setting: the figure for `C[C@H](N)C(=O)NCCCCCCCCCn1cc(C2=C(c3cn(C)c4ccccc34)C(=O)NC2=O)c2ccccc21` [Example 2d, 2-[(l-Methyl)-1H-indol-3-yl]-3-[1-(9-L-alanylaminononyl)-1H-indol-3-yl)-maleinimide] is over 1 µM; for `C[C@H](N)C(=O)NCC(=O)NCCCn1cc(C2=C(c3cn(C)c4ccccc34)C(=O)NC2=O)c2ccccc21` [Example 4, 2-[(1-Methyl)-1H-indol-3-yl)-3-[1-[3-(L-alanylglycyl)-aminopropyl]-1H-indol-3-yl]] it is 0.036 µM.
`C[C@H](NC(=O)CCn1cc(C2=C(c3cn(C)c4ccccc34)C(=O)NC2=O)c2ccccc21)C(=O)NCC(=O)N[C@@H](CCCCN)C(N)=O` [Example 7, 3-[3-[4-(1-Methylindol-3-yl)-1H-pyrrole-2,5-dion-3-yl]-indol-1-yl)-propionyl-L-alanylglycyl-L-lysinamide]: the IC50 at protein kinase C (PKC) (setting [2]) was 0.23 µM.
For the compound `C[C@H](N)C(=O)NCCCn1c2ccccc2c2c3c(c4c5ccccc5n(C)c4c21)C(=O)NC3=O` [Example 8, 12-[2-(3-L-Alanyl)-aminopropyl)-6,7,12,13-tetrahydro-13-methyl-5,7-dioxo-5H-indolo[2,3-a]pyrrolo[3,4-c]-carbazole], the IC50 at protein kinase C (PKC) (setting [2]) came to 0.038 µM.
`Cn1cc(C2=C(c3cn(CCCCNC(=O)[C@@H](N)CCCNC(=N)N)c4ccccc34)C(=O)NC2=O)c2ccccc21` [Example 2b, 2-[(1-Methyl)-1H-indol-3-yl]-3-[1-(4-L-arginylaminobutyl)-1H-indol-3-yl]-maleinimide]: the IC50 on protein kinase C (PKC) (setting [2]) is 0.22 µM.
The same measure, in the same setting: as for `Cn1cc(C2=C(c3cn(CCC(=O)NCC(=O)NCC(=O)N[C@@H](CO)C(N)=O)c4ccccc34)C(=O)NC2=O)c2ccccc21` [Example 7c, 3-[3-[4-(1-methylindol-3-yl)-1H-pyrrole-3,5-dion-3-yl]-indol-1-yl]-propionylglycylglycyl-L-serylamide], the figure is 0.2 µM.
`Cn1cc(C2=C(c3cn(CCCNC(=O)[C@@H](N)CO)c4ccccc34)C(=O)NC2=O)c2ccccc21` [Example 1, 2-[(1-Methyl)-1H-indol-3-yl]-3-(1-(3-L-serylaminopropyl)-1H-indol-3-yl)-maleinimide]: the IC50 at protein kinase C (PKC) (setting [2]) amounted to 0.014 µM; on protein kinase C (PKC) (setting [3]), 0.014 µM; in assay [1], 4.6 µM. In addition, the “Ratio of IC50 MLC Kinase/IC50 C Kinase” value in assay [1] amounted to 328.
“12-[2-(L-Alanyl-L-arginyl)-aminopropyl]-6,7,12,13-tetrahydro-13-methyl-5,7- dioxo-5H-indolo[2,3-a]pyrrolo-[3,4-c]carbazole [Example 9]”: at protein kinase C (PKC) (setting [2]), the 50% inhibitory concentration (IC50) came out at 0.19 µM.
On to `C[C@H](NC(=O)[C@H](Cc1ccccc1)NC(=O)[C@H](CCCNC(=N)N)NC(=O)[C@H](CC(N)=O)NC(=O)[C@H](CCCCN)NC(=O)CCn1cc(C2=C(c3cn(C)c4ccccc34)C(=O)NC2=O)c2ccccc21)C(N)=O` [Example 7a, 3-[3-[4-(1-methylindol-3-yl)-1H-pyrrole-2,5-dion-3-yl]-indol-1-yl)-propionyl-L-lysyl-L-asparaginyl-L-arginyl-L-phenylalanyl-L-alaninamide] (X1-KNRFA-NH2), for which the IC50 on protein kinase C (PKC) (setting [2]) was over 0.1 µM.
`Cn1cc(C2=C(c3cn(CCCN)c4ccccc34)C(=O)NC2=O)c2ccccc21` [A, 3[1(3-aminopropyl)-3-indolyl)-4-(1-methyl-3-indolyl)-1H-pyrrole-2,5-dione, reference compound]: the IC50 at protein kinase C (PKC) (setting [3]) was 0.13 µM; in assay [1], 1.3 µM. In assay [1], the “Ratio of IC50 MLC Kinase/IC50 C Kinase” value is on record as 10.
For `C[C@H](N)C(=O)NCCCCCn1cc(C2=C(c3cn(C)c4ccccc34)C(=O)NC2=O)c2ccccc21` [Example 2c, 2-[(1-Methyl)-1H-indol-3-yl]-3-[1-(5-L-alanylaminopentyl)-1H-indol-3-yl]-maleinimide], on protein kinase C (PKC) (setting [2]), the IC50 was over 0.1 µM.
Regarding `Cn1cc(C2=C(c3cn(CCCNC(=O)CCN)c4ccccc34)C(=O)NC2=O)c2ccccc21` [Example 1b, 2-[(1-Methyl)-1H-indol-3-yl]-3-[1-(3-β-alanylaminopropyl)-1H-indol-3-yl]-maleinimide], the results for the IC50 (on protein kinase C (PKC) (setting [2]); at protein kinase C (PKC) (setting [3]); in assay [1]) were 0.023 µM, 0.023 µM and 2.4 µM, respectively. Also, the “Ratio of IC50 MLC Kinase/IC50 C Kinase” value in assay [1] is given as 104.

As a reminder, the IC50 is the concentration that inhibits the measured activity by half.

(Values after patent US5750555A, “Bis-indolyl maleinimide or indolopyrrolo carbazole containing an amino acid as PKC inhibitors” (Goedecke Aktiengesellschaft, priority 1992, dated 1998).)
